Data taken from publication PMC7139830, “Drug Conjugation Induced Modulation of Structural and Membrane Interaction Features of Cationic Cell-Permeable Peptides” (International Journal of Molecular Sciences, 2020).
Read-outs that look alike come from different tables or passages of the source.

Tests used:
[1] = Analytical RP-HPLC retention time on C-18 column as indicator of polarity; assay type: physicochemical; details: chromatographic, YMC-Pack ODS-A C18 (5 µm, 120 Å) 150 × 4.6 mm; gradient 5% B 2 min, 5%–100% B 20 min; A 0.1% TFA in water, B 0.1% TFA in acetonitrile/water 80/20; 1 mL/min; UV 220 nm
Text: Cationic membrane active peptides and their INH-derivatives were synthesized in good yields, using previously described methods. Peptides were characterized with their monoisotopic molecular mass (M), retention time on a C-18 RP-HPLC column (Rt), estimated hydrophilicity values (H) and net charge (z) (see Table 1). Peptides are listed according to their retention times, which are the indicator of their polarity. […] This order of peptides’ polarity is almost equal to the relative hydrophilicity estimated from the amino acid composition. […] That might be the result of decreased charge due to INH coupling at the N-terminal, although the addition of INH molecule is expected to increase the polarity of the conjugate.
Purified peptides were analyzed by RP-HPLC, on an analytical C-18 column, using gradient elution with the abovementioned eluent A and B (flow rate was 1 mL/min, UV detection at λ = 220 nm). Molecular mass of the peptides was determined on a Thermo Scientific Q Exactive™ Focus Hybrid Quadrupole-Orbitrap™ Mass Spectrometer (ThermoFisher Scientific, Waltham, MA, USA).

[2] = system: Mycobacterium tuberculosis H37Rv in infected MonoMac-6 human monocytes; assay type: cell-based
[3] = AFM imaging of penetrated DPPC lipid layer; assay type: physicochemical; details: DPPC monolayer, AFM cross-section profiles
Text: At the end of the membrane affinity measurements, the penetrated monolayers were transferred to a previously cleaned cover glass, to study the structural changes of the membranes by atomic force microscopy (Figure 5 and Figure 6). The surface of the original DPPC and mixed DPPC+mycolic acid monolayer is rather smooth, with a morphology described by typical roughness values presented in Table 2. (Ra is the average deviation of all points from a mean level over the evaluation area. Rq (RMS) is the root mean square roughness, while Rz is the average absolute value of the five highest peaks and the five lowest valleys over the evaluation area, being sensitive to positive or negative extremes of the image.) Well-defined homogenous lipid islands are formed by the ordered lipid molecules in equilibrium with the less-oriented film with smaller surface density as expected from the surface pressure–area isotherm. Comparing to this, the morphology of the penetrated monolayers was changed. The 3D images provide a visual impression on the surface, while the cross-section profiles allow the measurement of the height differences. […] This morphological change can also be expressed by the roughness factors determined by analyzing the AFM images (Table 2).
Penetrated Langmuir monolayers were transferred to a previously cleaned hydrophilic cover glass for atomic microscopy measurements. […]

[4] = AFM imaging of penetrated DPPC+mycolic acid lipid layer; assay type: physicochemical; details: DPPC+mycolic acid film, AFM cross-section profiles
[5] = system: EBC-1 cells; assay type: cell-based, human

With CM15 as the substance, how does the “Rt, retention time on C-18 RP-HPLC column (indicator of polarity)” value (shortened to “Rt, retention time”) [1] read?
Its value is 13.7.

Which “Rt, retention time” value [1] does the source give for “GIGKFLHSAKKFGKAFVGEIMNS [Magainin II, antimicrobial peptide isolated from amphibians]” here?
The value was 12.8.

For “INH-GIGKFLHSAKKFGKAFVGEIMNS [INH–Magainin II, isoniazid conjugated to the N-terminus of Magainin II via glyoxylic acid linker]”, which “Rt, retention time” value [1] is on record?
Its value is 13.3.

With “INH-KRLFKKLLFSLRKY [INH–Dhvar4, isoniazid conjugated to the N-terminus of Dhvar4 via glyoxylic acid linker]” as the substance, how does the “Rt, retention time” value [1] read?
The value was 12.8.

For “INH-RAGLQFPVGRVHRLLRK [INH–Buforin II (5–21), isoniazid conjugated to the N-terminus of Buforin II (5–21) via glyoxylic acid linker]”, which “Rt, retention time” value [1] is on record?
Its value is 11.0.

Which results are given for “INH-RQIKIWFQNRRMKWKK [INH–Penetratin, isoniazid conjugated to the N-terminus of Penetratin via glyoxylic acid linker]”?
Rt, retention time on C-18 RP-HPLC column (indicator of polarity) [1]: 11.5; Intracellular antitubercular activity [2]: efficient candidate against intracellular Mycobacterium tuberculosis; Height of aggregates / protrusions in penetrated layer [3]: 1–3 nm; Height of aggregates / vertical deviation in penetrated layer [4]: exceeding 3 nm

Which “Rt, retention time” value [1] does the source give for “INH-TKPKGTKPKGTKPKGTKPKG [INH–OT20, isoniazid conjugated to the N-terminus of OT20 via glyoxylic acid linker]” here?
Its value is 7.0.

For “KRLFKKLLFSLRKY [Dhvar4, synthetic derivative of Histatin, a salivary histidine-rich cationic AMP]”, which “Rt, retention time” value [1] is on record?
Its value is 11.8.

Which “Rt, retention time” value [1] does the source give for “RAGLQFPVGRVHRLLRK [Buforin II (5–21), antimicrobial peptide isolated from amphibians]” here?
The value was 10.9.

With “RQIKIWFQNRRMKWKK [Penetratin, cell-penetrating peptide]” as the substance, how does the “Rt, retention time” value [1] read?
The value was 10.9.

What about the Subcellular localization ([5]; Cf-labeled peptides, 60 min incubation, EBC-1 cells, confocal microscopy) of the same substance?
Its Subcellular localization is “diffused intracellular distribution”.

With “TKPKGTKPKGTKPKGTKPKG [OT20, synthetic oligomer of Tuftsin, cationic carrier peptide]” as the substance, how does the “Rt, retention time” value [1] read?
Its value is 6.7.

With Transportan as the substance, how does the Subcellular localization [5] read?
The Subcellular localization was “mostly vesicular localization”.
